Holding throughout (type): ADME, organism-based
A short description of series [1]: Apparent oral clearance in HIV-negative human at 600 mg, po administered every 24 hrs coadministered with 400 mg of atazanavir every 12 hrs. The conditions noted are these: in vivo.
Series [2] in a line: Cmax in HIV-negative human at 600 mg, po administered every 24 hrs coadministered with 300 mg of atazanavir every 12 hrs. Further details: dose 600 mg, route oral. Conditions: in vivo.
Series [3] deals with Homo sapiens. Description: Terminal apparent distribution volume in HIV-negative human at 600 mg, po administered every 24 hrs coadministered with 400 mg of atazanavir every 12 hrs. Conditions: in vivo.
Series [4] can be described thus: Tmax in HIV-negative human at 600 mg, po administered every 24 hrs coadministered with 300 mg of atazanavir every 12 hrs. Conditions: in vivo.
Series [5] is described as follows: Tmax in HIV-negative human at 600 mg, po administered every 24 hrs coadministered with 400 mg of atazanavir every 12 hrs. The conditions noted are these: in vivo.
Series [6] is described as follows: AUC (24 hrs) in HIV-negative human at 600 mg, po administered every 24 hrs coadministered with 400 mg of atazanavir every 12 hrs. Further details: time < 24 hr, dose 600 mg, route oral. The conditions noted are these: plasma.
The subject of series [7] is Homo sapiens. Nature of the series: Terminal apparent distribution volume in HIV-negative human at 600 mg, po administered every 24 hrs coadministered with 300 mg of atazanavir every 12 hrs. Conditions: in vivo.
A short description of series [8]: AUC (24 hrs) in HIV-negative human at 600 mg, po administered every 24 hrs coadministered with 300 mg of atazanavir every 12 hrs. Further details: dose 600 mg, time < 24 hr, route oral. Conditions: plasma.
Series [9] in a line: Cmax in HIV-negative human at 600 mg, po administered every 24 hrs coadministered with 400 mg of atazanavir every 12 hrs. Conditions: in vivo. Further details: dose 600 mg, route oral.
Series [10] in a line: Apparent oral clearance in HIV-negative human at 600 mg, po administered every 24 hrs coadministered with 300 mg of atazanavir every 12 hrs. The conditions noted are these: in vivo.

For orientation: CL/F means clearance divided by bioavailability, as obtained after extravascular dosing. As a reminder, the Cmax is the maximum level reached in the sampled fluid or tissue. What is called Tmax is the time at which the peak concentration occurs. As usually defined, the AUC is concentration integrated over time.

Turning to `CO[C@H]1/C=C/O[C@@]2(C)Oc3c(C)c(O)c4c(O)c(c(/C=N/N5CCN(C)CC5)c(O)c4c3C2=O)NC(=O)/C(C)=C\C=C\[C@H](C)[C@H](O)[C@@H](C)[C@@H](O)[C@@H](C)[C@H](OC(C)=O)[C@@H]1C` [RIFAMPIN], the results for the CL/F in series [1] and in series [10] were 275 mL/min and 252 mL/min, respectively. In addition, the Cmax in series [2] stood at 9490 ng/mL; in [9], 10100 ng/mL. For the same molecule, the figures for the Vbeta with Homo sapiens [3] and in the series with Homo sapiens [7] were 33 L and 32 L, respectively. Further, the Tmax in series [4] and in series [5] was 2.7 h in each case. The values for the AUC at 24 h in series [6] and in series [8] were 41700 ng·h/mL and 45700 ng·h/mL, respectively.

Values taken from ChEMBL document CHEMBL1143406 (Antimicrob Agents Chemother, 2007).
